Each structure is given as a SMILES string.

Test [1] addresses T1, Androgen receptor (Rattus norvegicus, UniProt P15207).
T1 sequence (P15207 whole entry): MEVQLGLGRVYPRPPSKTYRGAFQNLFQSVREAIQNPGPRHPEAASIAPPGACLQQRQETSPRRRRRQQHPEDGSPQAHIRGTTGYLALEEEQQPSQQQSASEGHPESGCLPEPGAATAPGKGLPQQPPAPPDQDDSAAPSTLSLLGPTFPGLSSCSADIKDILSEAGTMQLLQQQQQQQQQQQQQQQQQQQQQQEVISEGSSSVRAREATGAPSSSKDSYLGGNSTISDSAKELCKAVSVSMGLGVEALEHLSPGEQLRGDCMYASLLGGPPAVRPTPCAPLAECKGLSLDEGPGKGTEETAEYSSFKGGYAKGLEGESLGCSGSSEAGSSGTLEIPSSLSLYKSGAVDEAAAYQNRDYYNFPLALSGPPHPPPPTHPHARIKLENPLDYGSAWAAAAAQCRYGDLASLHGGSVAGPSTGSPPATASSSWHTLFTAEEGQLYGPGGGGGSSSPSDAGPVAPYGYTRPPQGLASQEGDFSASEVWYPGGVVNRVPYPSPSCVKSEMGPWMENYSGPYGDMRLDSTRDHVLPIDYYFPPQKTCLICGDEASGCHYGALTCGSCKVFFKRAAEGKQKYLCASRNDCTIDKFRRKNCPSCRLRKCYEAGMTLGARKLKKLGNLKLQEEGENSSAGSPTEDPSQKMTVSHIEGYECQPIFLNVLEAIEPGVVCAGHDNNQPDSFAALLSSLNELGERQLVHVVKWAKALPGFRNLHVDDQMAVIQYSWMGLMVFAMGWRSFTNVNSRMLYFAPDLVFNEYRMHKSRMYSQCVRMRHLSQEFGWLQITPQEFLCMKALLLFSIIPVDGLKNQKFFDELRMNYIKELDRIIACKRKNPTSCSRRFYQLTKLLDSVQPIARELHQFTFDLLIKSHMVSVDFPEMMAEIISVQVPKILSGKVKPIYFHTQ
In kind it is functional.

Test [2] deals with T1, Androgen receptor. In kind it is functional. This is another data set of the same source.
The target of test [3] is T2, Prostaglandin G/H synthase 1 (Rattus norvegicus, UniProt Q63921).
T2 sequence (Q63921 whole entry): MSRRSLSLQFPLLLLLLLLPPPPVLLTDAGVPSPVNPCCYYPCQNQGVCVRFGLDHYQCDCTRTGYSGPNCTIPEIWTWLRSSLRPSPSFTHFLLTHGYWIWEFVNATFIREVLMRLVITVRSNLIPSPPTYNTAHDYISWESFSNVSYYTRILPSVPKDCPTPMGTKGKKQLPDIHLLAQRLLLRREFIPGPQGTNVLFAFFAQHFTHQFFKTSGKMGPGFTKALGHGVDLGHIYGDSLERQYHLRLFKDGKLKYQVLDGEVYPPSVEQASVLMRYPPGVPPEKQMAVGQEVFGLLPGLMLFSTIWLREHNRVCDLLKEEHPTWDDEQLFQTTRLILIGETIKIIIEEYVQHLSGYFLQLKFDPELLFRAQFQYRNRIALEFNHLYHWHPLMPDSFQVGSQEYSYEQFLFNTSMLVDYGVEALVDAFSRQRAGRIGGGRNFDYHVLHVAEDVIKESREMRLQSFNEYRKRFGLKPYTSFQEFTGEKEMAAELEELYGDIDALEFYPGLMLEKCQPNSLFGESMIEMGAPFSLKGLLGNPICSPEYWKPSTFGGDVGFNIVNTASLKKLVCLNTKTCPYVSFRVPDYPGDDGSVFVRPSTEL
In kind it is functional.

Test [4] deals with D(1B) dopamine receptor (Homo sapiens, UniProt P21918).
The target in test [5] is Rod cGMP-specific 3',5'-cyclic phosphodiesterase subunit alpha (Homo sapiens, UniProt P16499). It is filed as functional.
Test [6] addresses T3, Substance-K receptor (Homo sapiens, UniProt P21452).
T3 sequence (P21452 whole entry): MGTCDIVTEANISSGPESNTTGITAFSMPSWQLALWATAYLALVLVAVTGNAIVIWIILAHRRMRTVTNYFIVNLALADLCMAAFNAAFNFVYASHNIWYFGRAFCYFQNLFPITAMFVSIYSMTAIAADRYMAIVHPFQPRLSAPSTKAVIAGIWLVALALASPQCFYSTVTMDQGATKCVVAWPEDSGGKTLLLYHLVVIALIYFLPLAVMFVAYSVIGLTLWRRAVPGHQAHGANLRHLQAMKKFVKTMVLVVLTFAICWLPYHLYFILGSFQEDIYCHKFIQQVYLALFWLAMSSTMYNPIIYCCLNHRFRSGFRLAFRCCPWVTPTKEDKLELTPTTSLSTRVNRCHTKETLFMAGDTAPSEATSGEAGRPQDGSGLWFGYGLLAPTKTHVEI

Test [7] has as its target T4, Thromboxane A2 receptor (Homo sapiens, UniProt P21731).
T4 sequence (P21731 whole entry): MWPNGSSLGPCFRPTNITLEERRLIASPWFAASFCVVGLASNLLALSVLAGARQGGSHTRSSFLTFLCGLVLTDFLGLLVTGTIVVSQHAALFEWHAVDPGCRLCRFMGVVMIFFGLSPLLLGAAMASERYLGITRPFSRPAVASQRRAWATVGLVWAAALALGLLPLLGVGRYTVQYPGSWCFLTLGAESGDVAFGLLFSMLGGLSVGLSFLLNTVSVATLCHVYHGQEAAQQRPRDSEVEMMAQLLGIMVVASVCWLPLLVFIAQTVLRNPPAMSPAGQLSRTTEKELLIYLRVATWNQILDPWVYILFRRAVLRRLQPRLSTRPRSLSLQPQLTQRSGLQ
It is filed as functional, cell-based.
Also: assay procedure not described here.

D(1B) dopamine receptor, sequence (P21918 whole entry): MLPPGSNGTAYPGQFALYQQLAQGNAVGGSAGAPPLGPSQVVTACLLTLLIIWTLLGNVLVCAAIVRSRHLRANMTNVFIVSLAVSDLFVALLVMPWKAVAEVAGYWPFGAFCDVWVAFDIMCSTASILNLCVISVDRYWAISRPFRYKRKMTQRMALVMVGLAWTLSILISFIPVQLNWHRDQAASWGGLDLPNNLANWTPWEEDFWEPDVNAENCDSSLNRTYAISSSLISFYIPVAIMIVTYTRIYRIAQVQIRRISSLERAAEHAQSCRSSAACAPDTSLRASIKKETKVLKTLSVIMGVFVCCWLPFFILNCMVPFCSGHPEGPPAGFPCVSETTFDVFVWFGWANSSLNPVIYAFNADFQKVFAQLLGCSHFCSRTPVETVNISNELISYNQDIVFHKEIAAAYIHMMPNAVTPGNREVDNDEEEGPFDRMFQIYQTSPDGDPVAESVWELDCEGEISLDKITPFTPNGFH
Rod cGMP-specific 3',5'-cyclic phosphodiesterase subunit alpha, sequence (P16499 whole entry): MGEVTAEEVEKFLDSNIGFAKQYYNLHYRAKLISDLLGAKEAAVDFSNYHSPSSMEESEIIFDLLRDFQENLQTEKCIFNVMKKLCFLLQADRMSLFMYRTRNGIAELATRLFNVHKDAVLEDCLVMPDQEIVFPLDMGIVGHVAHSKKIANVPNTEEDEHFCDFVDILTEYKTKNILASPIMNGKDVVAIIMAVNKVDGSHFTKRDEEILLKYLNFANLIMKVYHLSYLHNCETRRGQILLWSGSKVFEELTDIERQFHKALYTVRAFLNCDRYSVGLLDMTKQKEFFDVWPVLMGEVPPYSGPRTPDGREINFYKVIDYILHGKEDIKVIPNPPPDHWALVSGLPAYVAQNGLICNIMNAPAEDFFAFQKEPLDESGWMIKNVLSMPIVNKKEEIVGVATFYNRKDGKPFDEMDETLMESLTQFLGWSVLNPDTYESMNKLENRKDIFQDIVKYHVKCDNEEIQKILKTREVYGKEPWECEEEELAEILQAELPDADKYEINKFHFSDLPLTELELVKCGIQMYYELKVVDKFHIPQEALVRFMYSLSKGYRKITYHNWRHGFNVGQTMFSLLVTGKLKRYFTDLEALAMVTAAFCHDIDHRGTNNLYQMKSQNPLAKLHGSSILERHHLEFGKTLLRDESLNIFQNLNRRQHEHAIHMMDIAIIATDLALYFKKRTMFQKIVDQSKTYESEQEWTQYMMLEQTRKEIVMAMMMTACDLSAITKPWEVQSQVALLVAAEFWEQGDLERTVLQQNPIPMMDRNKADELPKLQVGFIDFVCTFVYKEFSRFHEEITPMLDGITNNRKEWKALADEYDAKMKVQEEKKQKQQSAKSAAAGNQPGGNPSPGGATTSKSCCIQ

In general, AC50 refers to the midpoint of the concentration-response curve, whichever way the signal moves. In the case of `CN(C)CC/C=C1\c2ccccc2CSc2ccccc21` [DOTHIEPIN], the AC50 in test [1] and in test [2] was > 30 µM in each case.
`CCCCCNC(=N)N/N=C/c1c[nH]c2ccc(OC)cc12` [TEGASEROD]: the concentration at half-maximal activity (AC50) in test [3] was > 30 µM.
Turning to `CCOc1ccccc1OCC1CNCCO1` (configuration not stated) [VILOXAZINE], the AC50 in test [4] is > 10 µM; in test [5] it was > 10 µM; in test [6], > 10 µM; in test [7], > 30 µM.

The values above are taken from ChEMBL document CHEMBL5291721, “A preclinical secondary pharmacology resource illuminates target-adverse drug reaction associations of marketed drugs” (Nat Commun, 2023).
